Literature values in the PKSmart pharmacokinetics tables (Seal et al. 2025).

Key:
[1] = Lombardo, Berellini, Obach 2018, Drug Metab Dispos 46:1466, doi 10.1124/dmd.118.082966; details: human; for MRT / Vd / clearance / half-life: in vivo, iv; for fraction unbound: plasma
[2] = Lombardo et al. 2013, J Clin Pharmacol 53:178, doi 10.1177/0091270012440282; details: for Vd / clearance: in vivo, iv; for fraction unbound: plasma

Compound | MRT [1] [h] | Vd [1] [L/kg] | clearance [1] [mL/min/kg] | half-life [1] [h] | Vd ([2]; dog) [L/kg] | clearance ([2]; dog) [mL/min/kg] | fraction unbound ([2]; dog) | Vd ([2]; rat) [L/kg] | clearance ([2]; rat) [mL/min/kg] | fraction unbound [1] | Vd ([2]; monkey) [L/kg] | clearance ([2]; monkey) [mL/min/kg] | fraction unbound ([2]; monkey) | fraction unbound ([2]; rat)
C[C@@H]1O[C@@H]1P(=O)(O)O | 2.7 | 0.32 | 2 | 1.9 | 0.77 | 6.9 | 1 | – | – | – | – | – | – | –
Nc1ccn([C@@H]2O[C@H](CO)[C@@H](O)[C@@H]2O)c(=O)n1 | 0.28 | 0.67 | 41.7 | 0.17 | 0.86 | 11.3 | – | – | – | – | – | – | – | –
CCN(CC)CCNC(=O)c1ccc(NS(C)(=O)=O)cc1 | 3.7 | 0.82 | 3.7 | 3.8 | 1.4 | 9 | – | 2.08 | 25.6 | – | – | – | – | –
Cc1cccnc1NS(=O)(=O)c1ccc(C#Cc2ccc(O)c(C(=O)O)c2)cc1 | 23.8 | 0.1 | 0.07 | 16 | 0.19 | 20 | 0.01 | 1.2 | 62 | 0.0019 | 0.08 | 1.9 | 0.003 | 0.0033
COC(=O)C1=C(C)NC(C)=C(C(=O)OCC(C)C)C1c1ccccc1[N+](=O)[O-] (stereo unspecified) | 6.5 | 5.5 | 15 | 11 | 4.1 | 37.2 | 0.028 | 0.89 | 45.8 | – | – | – | – | –
CC(C)C[C@H](NC(=O)C(NC(=O)c1cccc(-c2ccccc2)n1)[C@@H](C)O)B(O)O (stereo partly specified) | 50.6 | 0.87 | 0.29 | 42.1 | – | – | – | 18.1 | 3.17 | – | – | – | – | –
CC(C)NCC(O)COc1ccc(CCOCC2CC2)cc1 (stereo unspecified) | 24 | 4.8 | 3.4 | 17 | 8.2 | 20 | 0.47 | 12 | 154 | – | – | – | – | 0.54
CON=C(C(=O)NC1C(=O)N2C(C(=O)O)=CCS[C@H]12)c1csc(N)n1 (stereo partly specified) | 1.6 | 0.2 | 2.1 | 1.5 | 0.27 | 3.25 | 0.83 | 0.54 | 19.3 | 0.72 | 0.29 | 5.93 | 0.662 | 0.7
CC1(C)S[C@@H]2C(NC(=O)C(N)c3ccc(O)cc3)C(=O)N2C1C(=O)O (stereo partly specified) | 1.3 | 0.25 | 3.3 | 1.1 | 0.31 | 3.4 | 0.66 | 0.5 | 17 | – | – | – | – | –
Cc1nnc2n1-c1ccc(Cl)cc1C(c1ccccc1)=NC2 | 18 | 0.8 | 0.74 | 12 | – | – | – | 2.7 | 133 | – | – | – | – | 0.35
CCN(CC)CCNC(=O)c1ccc(NC(C)=O)cc1 | 7.9 | 1.9 | 4 | 6.4 | 1.9 | 6.4 | 0.913 | 2.9 | 28 | 0.9 | – | – | – | 0.58
COc1cc2c3cc1Oc1cc(ccc1O)C[C@@H]1c4c(cc(OC)c([O-])c4Oc4ccc(cc4)C[C@@H]3N(C)CC2)CC[N+]1(C)C | 2.2 | 0.45 | 3.4 | 2 | 0.37 | 3.73 | – | – | – | 0.58 | – | – | – | –
CNC1(c2ccccc2Cl)CCCCC1=O (stereo unspecified) | 2.5 | 2.9 | 19 | 2.8 | 2.5 | 32.2 | 0.47 | 3.68 | 115 | 0.47 | – | – | – | –
N[C@@H](CC(=O)N1CCn2c(nnc2C(F)(F)F)C1)Cc1cc(F)c(F)cc1F | 7.8 | 2.8 | 6 | 12 | 3.3 | 9.1 | 0.556 | 8.1 | 45 | – | – | – | – | 0.68
CC[C@@H](CO)NCCN[C@@H](CC)CO | 2.7 | 1.7 | 10 | 3.1 | 3.8 | 13 | – | – | – | 0.18 | – | – | – | –
CN(C)CCC=C1c2ccccc2CCc2ccccc21 | 24 | 8.7 | 6.1 | 17 | – | – | – | 11 | 71 | – | – | – | – | 0.11
CN1C(=O)NC(=O)C(C)(C2=CCCCC2)C1=O (stereo unspecified) | 5.4 | 1.1 | 3.4 | 4.9 | – | – | – | 2.5 | 40.6 | 0.53 | – | – | – | –
CC(=O)Nc1nnc(S(N)(=O)=O)s1 | 9.5 | 0.37 | 0.65 | – | – | – | – | 0.21 | 68 | 0.04 | – | – | – | 0.2
CC(C)(C)NC(=O)C1CC[C@H]2[C@@H]3CC[C@H]4NC(=O)C=C[C@]4(C)[C@H]3CC[C@]12C (stereo partly specified) | 7.6 | 1.1 | – | 6 | – | – | 0.18 | – | – | – | – | – | – | –
CCCC(C)C1(CC)C(=O)NC(=O)NC1=O (stereo unspecified) | 32 | 0.91 | 0.47 | 22 | 1.06 | 1.3 | – | 1.64 | 8.4 | 0.39 | – | – | – | 0.5

Compound | MRT [1] [h] | Vd [1] [L/kg] | clearance [1] [mL/min/kg] | half-life [1] [h] | Vd ([2]; dog) [L/kg] | clearance ([2]; dog) [mL/min/kg] | fraction unbound ([2]; dog) | Vd ([2]; rat) [L/kg] | clearance ([2]; rat) [mL/min/kg] | fraction unbound [1] | Vd ([2]; monkey) [L/kg] | clearance ([2]; monkey) [mL/min/kg] | fraction unbound ([2]; monkey) | fraction unbound ([2]; rat)
CCCC[C@@H]1CC(=O)[C@]2(O)O[C@@H]3[C@@H](NC)[C@@H](O)[C@@H](NC)[C@H](O)[C@H]3O[C@@H]2O1 | 6.9 | 0.7 | 1.7 | 11 | 49.8 | 2.69 | 0.533 | 4.46 | 4.28 | 0.65 | – | – | – | 0.62
CN1CC[C@]23c4c5ccc(O)c4OC2C(=O)CC[C@H]3[C@H]1C5 (stereo partly specified) | – | – | – | 2.3 | 5.8 | 71 | – | – | – | – | – | – | – | –
NCCC(O)C(=O)N[C@@H]1C[C@H](N)[C@@H](O[C@H]2O[C@H](CN)[C@@H](O)[C@H](O)[C@H]2O)[C@H](O)[C@H]1O[C@H]1O[C@H](CO)[C@@H](O)[C@H](N)[C@H]1O (stereo partly specified) | 2.4 | 0.16 | 1.1 | 2.4 | 0.2 | 3.5 | – | 0.16 | 5.4 | 0.88 | – | – | – | –
Cc1ccsc1C(=CCCN1CCCC(C(=O)O)C1)c1sccc1C (stereo unspecified) | 12 | 1.1 | 1.6 | 10 | – | – | – | 2.05 | 89 | – | – | – | – | –
Nc1ccn(C[C@@H](CO)OCP(=O)(O)O)c(=O)n1 | 3.3 | 0.49 | 2.5 | 2.6 | – | – | – | 2 | 0.7 | – | 0.8 | 3.5 | – | 1
CC[C@@]1(O)C(=O)OCc2c1cc1n(c2=O)Cc2cc3c(CN(C)C)c(O)ccc3nc2-1 | – | – | – | – | – | – | – | – | – | 0.65 | – | – | 0.8 | 0.747
CC1(C)S[C@@H]2C(NC(=O)C(N)c3ccccc3)C(=O)N2C1C(=O)O (stereo partly specified) | 1.3 | 0.22 | 2.8 | 1.4 | 0.58 | 9.1 | 0.58 | 1.1 | 19 | – | – | – | – | 0.6
CS(=O)(=O)OCCCCOS(C)(=O)=O | 3.8 | 0.55 | 2.4 | 3.4 | 1 | 19.2 | – | 0.68 | 5 | – | – | – | – | 0.91
COc1ccc2c3c1O[C@H]1[C@@H](O)C=C[C@H]4[C@@H](C2)N(C)CC[C@@]341 | 3.9 | 3.5 | 15 | 4 | – | – | – | – | – | 0.7 | – | – | – | 0.92
Cc1nnc2n1-c1ccc(Cl)cc1C(c1ccccc1Cl)=NC2 | 3.2 | 0.58 | – | 2.7 | – | – | – | 3.4 | – | – | – | – | – | –
O=c1[nH]cc(F)c(=O)[nH]1 | – | – | – | – | – | – | – | 0.25 | 33 | 0.64 | – | – | – | 0.69
Cc1ncc2n1-c1ccc(Cl)cc1C(c1ccccc1F)=NC2 | 3.5 | 1.1 | 5.3 | 3.1 | 1.1 | 35.2 | 0.0223 | 2.6 | 90 | – | 3 | 22.3 | 0.146 | 0.04
Nc1ccc(S(=O)(=O)Nc2ncccn2)cc1 | 8.8 | 0.29 | 0.55 | 7 | – | – | 0.78 | 0.34 | 1.1 | – | 0.5 | 0.64 | 0.463 | 0.86
Cn1nnnc1SCC1=C(C(=O)O)N2C(=O)C(NC(=O)C(O)c3ccccc3)[C@H]2SC1 (stereo partly specified) | 0.75 | 0.16 | 3.6 | 0.75 | – | – | – | 0.25 | 21.8 | 0.25 | – | – | – | –
CCCCCNC(=O)c1coc([C@H]2[C@@H](Cc3ccccc3CCC(=O)O)[C@@H]3CC[C@H]2O3)n1 | 11 | 4.4 | 6.4 | 22 | 11 | 65 | – | 2.8 | 87.5 | – | 5.5 | 19.1 | – | –
CC(C)NCC(O)COc1cccc2ccccc12 (stereo unspecified) | 4.3 | 3.1 | 12 | 3.4 | 6.79 | 51.8 | 0.04 | 4.58 | 94.3 | – | 2.28 | 20.8 | 0.03 | 0.1
CC(C)(C)NC(=O)C1CN(Cc2cccnc2)CCN1C[C@@H](O)CC(Cc1ccccc1)C(=O)N[C@H]1c2ccccc2C[C@H]1O (stereo partly specified) | 0.76 | 0.82 | – | 1 | 0.73 | 15 | – | 2.2 | 89 | – | 1.45 | 35.7 | – | –
CC(C)c1cccc(C(C)C)c1O | 2.2 | 4.7 | 36 | 3.2 | 2.46 | 39.8 | 0.02 | 1.37 | 107 | 0.016 | – | – | – | 0.03
Cc1cn([C@H]2C[C@H](N=[N+]=[N-])[C@@H](CO)O2)c(=O)[nH]c1=O | 1.2 | 1.8 | – | 1.3 | 1 | 14 | 0.827 | – | – | 0.8 | – | – | – | –
Nc1ccn([C@@H]2CO[C@H](CO)O2)c(=O)n1 | 6.9 | 1 | 2.4 | 82 | – | – | – | 1.42 | 23 | – | – | – | – | –
